Reference: US11242334B2, “Heterocyclic compounds as kinase inhibitors, compositions comprising the heterocyclic compound, and methods of use thereof” (JS INNOPHARM (SHANGHAI) LTD, priority 2017, dated 2022)

What was measured:
[1] = biological target: T1, human ERK2 (Homo sapiens, UniProt P28482); assay: LanthaScreen TR-FRET enzymatic assay, ERK2; conditions: IC50 values of ERK2 biochemical activity; 5 μM ATP, 400 nM ATF2-GFP substrate
T1 construct: recombinantly expressed as GST-tagged full-length protein purified from E. coli; GST; purchased Invitrogen PV3311; host or cells: E. coli
Procedure, shortened: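 IC50 values were fitted from percent of DMSO control using a 520/495 nm TR-FRET ratio with terbium anti-pATF2 (pThr71), read after an EDTA stop. The kinase reaction lasted one hour at room temperature, following 15-min compound pre-treatment. It contained 5 μM ATP, 400 nM ATF2-GFP substrate and 20 ng/ml in vitro-activated GST-ERK2.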

[2] = system: Colo205 cell line; assay: Colo205 cell proliferation assay (MTT assay, WST-8 readout); assay type: cell-based; conditions: Homo sapiens; IC50 values of growth inhibition in Colo 205 cells; 72 hours
Procedure, shortened: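 Growth-inhibition IC50 was derived from WST-8 absorbance at 450 nm (2 h development) after 72 h compound exposure at 37° C. Exposure used final 50 μM–0.005 μM compound in 0.5% DMSO. Colo205 cells had been plated at 5,000/well in RPMI-1640 plus 10% FBS and allowed 24 h to attach.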

T1 sequence (P28482 whole entry): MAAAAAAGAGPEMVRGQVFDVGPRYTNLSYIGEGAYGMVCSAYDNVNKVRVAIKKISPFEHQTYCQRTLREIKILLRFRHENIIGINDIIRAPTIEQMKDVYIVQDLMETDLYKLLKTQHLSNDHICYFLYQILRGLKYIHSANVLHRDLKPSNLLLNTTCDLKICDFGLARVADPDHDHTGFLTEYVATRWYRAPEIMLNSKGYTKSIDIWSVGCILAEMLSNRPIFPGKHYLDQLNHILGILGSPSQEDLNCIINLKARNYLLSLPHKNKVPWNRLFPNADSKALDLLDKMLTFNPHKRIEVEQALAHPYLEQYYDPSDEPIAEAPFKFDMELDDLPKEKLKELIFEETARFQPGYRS

SMILES | IC50 [1] [µM] | IC50 [2] [µM]
Cc1cc(-c2n[nH]c3cnc(-c4ccn(Cc5ccnc(C(F)(F)F)c5)c(=O)c4)cc23)ccn1 [Example 144, 4-(3-(2-methylpyridin-4-yl)-1H-pyrazolo[3,4-c]pyridin-5-yl)-1-((2-(trifluoromethyl)pyridin-4-yl)methyl)pyridin-2(1H)-one] | < 0.01 | 1 to 5
O=c1cc(-c2ccc3[nH]nc(C4CCOCC4)c3c2)ccn1[C@H](CO)c1cc(F)cc(Br)c1 [Example 145, (S)-1-(1-(3-bromo-5-fluorophenyl)-2-hydroxyethyl)-4-(3-(tetrahydro-2H-pyran-4-yl)-1H-indazol-5-yl)pyridin-2(1H)-one] | < 0.01 | 0.5 to 1
O=c1cc(-c2ccc3[nH]nc(C4CCOCC4)c3c2)ccn1Cc1ccnc(C(F)(F)F)c1 [Example 147, 4-(3-(tetrahydro-2H-pyran-4-yl)-1H-indazol-5-yl)-1-((2-(trifluoromethyl)pyridin-4-yl)methyl)pyriidn-2(1H)-one] | < 0.01 | ≤ 0.5
O=c1cc(-c2ccc3[nH]nc([C@H]4CC[C@H](O)CC4)c3c2)ccn1Cc1ccnc(C(F)(F)F)c1 [Example 148, 4-(3-((1r,4r)-4-hydroxycyclohexyl)-1H-indazol-5-yl)-1-((2-(trifluoromethyl)pyridin-4-yl)methyl)pyridin-2(1H)-one] | < 0.01 | 1 to 5

Now from value to compound:

IC50 [1] [µM] | IC50 [2] [µM] | SMILES
< 0.01 | 1 to 5 | CC(c1cc(F)cc(Br)c1)n1ccc(-c2ccc3[nH]nc(C4CCOCC4)c3c2)cc1=O (stereo not drawn) [Example 146, 1-(1-(3-bromo-5-fluorophenyl)ethyl)-4-(3-(tetrahydro-2H-pyran-4-yl)-1H-indazol-5-yl)pyridin-2(1H)-one]
0.01 to 0.05 | > 5 | O=c1cc(-c2ccc3[nH]nc([C@H]4CC[C@@H](O)CC4)c3c2)ccn1Cc1ccnc(C(F)(F)F)c1 [Example 149, 4-(3-((1s,4s)-4-hydroxycyclohexyl)-1H-indazol-5-yl)-1-((2-(trifluoromethyl)pyridin-4-yl)methyl)pyridin-2(1H)-one]
